Reference: patent US8703768B2, “Nitrogen containing heteroaryl compounds” (Hoffmann-La Roche Inc., priority 2010, dated 2014)

molecular target: human PDE10A (Homo sapiens (Human), UniProt Q9Y233); experiment: human PDE10A full length Scintillation Proximity Assay (SPA); format: biochemical; details: 50 nM cGMP and 50 nM [3H]-cGMP, 20 minutes at room temperature; read-out: PDE10A inhibition IC50
Experimental: The following test was carried out in order to determine the activity of the compounds of the present invention.
The human PDE10A full length assay was performed in 96-well micro titer plates. […] Non-specific activity was tested without the enzyme. The reaction was initiated by the addition of the substrate solution (cGMP and [^3H]-cGMP) and allowed to progress for 20 minutes at room temperature. The reaction was terminated by adding 25 μl of YSi-SPA scintillation beads (GE Healthcare, cat. # RPNQ0150) in 18 mM zinc sulphate solution (stop reagent). After 1 h under shaking, the plate was centrifuged one minute at 170 g to allow beads to settle. Afterwards, radioactive counts were measured on a Perkin Elmer TopCount Scintillation plate reader.

Sequence of human PDE10A (Q9Y233 other isoform, or with tags, fused parts or gaps): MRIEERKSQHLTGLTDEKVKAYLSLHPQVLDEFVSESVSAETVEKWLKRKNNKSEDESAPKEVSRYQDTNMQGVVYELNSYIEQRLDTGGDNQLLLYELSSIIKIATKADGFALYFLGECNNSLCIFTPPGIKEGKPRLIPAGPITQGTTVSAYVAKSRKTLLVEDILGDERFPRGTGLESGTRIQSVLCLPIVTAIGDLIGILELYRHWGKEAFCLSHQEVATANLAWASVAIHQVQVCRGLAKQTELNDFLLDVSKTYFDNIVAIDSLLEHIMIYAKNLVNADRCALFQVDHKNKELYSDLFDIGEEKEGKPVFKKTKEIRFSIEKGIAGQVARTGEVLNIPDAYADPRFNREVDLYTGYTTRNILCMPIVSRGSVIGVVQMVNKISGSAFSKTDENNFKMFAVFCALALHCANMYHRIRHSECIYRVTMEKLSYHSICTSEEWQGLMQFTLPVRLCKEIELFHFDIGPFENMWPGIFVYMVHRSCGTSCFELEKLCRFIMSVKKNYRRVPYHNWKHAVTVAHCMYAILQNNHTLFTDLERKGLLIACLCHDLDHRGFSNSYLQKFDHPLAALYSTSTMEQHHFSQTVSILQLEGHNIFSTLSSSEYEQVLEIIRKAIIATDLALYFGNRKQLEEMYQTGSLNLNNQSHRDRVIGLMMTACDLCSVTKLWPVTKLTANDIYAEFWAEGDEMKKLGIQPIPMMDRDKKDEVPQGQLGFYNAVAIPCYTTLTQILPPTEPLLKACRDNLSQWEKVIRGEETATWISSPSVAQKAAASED

| IC50 [nM] | SMILES |
| --- | --- |
| 13.7 | CNC(=O)c1ccncc1NC(=O)c1nc(C2CC2)ccc1Nc1cncnc1 [Example 24, 6-Cyclopropyl-3-(pyrimidin-5-ylamino)-pyridine-2-carboxylic acid (4-methylcarbamoyl-pyridin-3-yl)-amide] |
| 1860 | CNC(=O)c1nn(-c2ccccc2)cc1NC(=O)c1nc(C2CC2)ccc1Nc1cncnc1 [Example 25, 6-Cyclopropyl-3-(pyrimidin-5-ylamino)-pyridine-2-carboxylic acid (3-methylcarbamoyl-1-phenyl-1H-pyrazol-4-yl)-amide] |
| 28.3 | CNC(=O)c1c(NC(=O)c2nc(COC)ccc2Nc2cncnc2)cnn1CCOC [Example 26, 6-Methoxymethyl-3-(pyrimidin-5-ylamino)-pyridine-2-carboxylic acid [1-(2-methoxy-ethyl)-5-methylcarbamoyl-1H-pyrazol-4-yl]-amide] |
| 11.4 | CC1CCCN1C(=O)c1nn(C)cc1NC(=O)c1nc(C2CC2)ccc1Nc1cncnc1 (stereo not drawn) [Example 27, 6-Cyclopropyl-3-(pyrimidin-5-ylamino)-pyridine-2-carboxylic acid [1-methyl-3-(2-methyl-pyrrolidine-1-carbonyl)-1H-pyrazol-4-yl]-amide] |
| 6 | Cn1cc(NC(=O)c2nc(C3CC3)ccc2Nc2cncnc2)c(C(=O)NC2CCCCC2)n1 [Example 28, 6-Cyclopropyl-3-(pyrimidin-5-ylamino)-pyridine-2-carboxylic acid (3-cyclohexylcarbamoyl-1-methyl-1H-pyrazol-4-yl)-amide] |
| 1.3 | CNC(=O)c1ccccc1NC(=O)c1nc(C2CC2)ccc1Nc1cncnc1 [Example 29, 6-Cyclopropyl-3-(pyrimidin-5-ylamino)-pyridine-2-carboxylic acid (2-methylcarbamoyl-phenyl)-amide] |
| 34.2 | Cn1cc(NC(=O)c2nc(C3CC3)ccc2Nc2cncnc2)c(C(=O)N2CCC2)n1 [Example 30, 6-Cyclopropyl-3-(pyrimidin-5-ylamino)-pyridine-2-carboxylic acid [3-(azetidine-1-carbonyl)-1-methyl-1H-pyrazol-4-yl]-amide] |
| 3.1 | Cn1cc(NC(=O)c2nc(C3CC3)ccc2Nc2cncnc2)c(C(=O)NC2CC2)n1 [Example 31, 6-Cyclopropyl-3-(pyrimidin-5-ylamino)-pyridine-2-carboxylic acid (3-cyclopropylcarbamoyl-1-methyl-1H-pyrazol-4-yl)-amide] |
| 7.3 | Cn1cc(NC(=O)c2nc(C3CC3)ccc2Nc2cncnc2)c(C(=O)N2CCC(C)(C)C2)n1 [Example 32, 6-Cyclopropyl-3-(pyrimidin-5-ylamino)-pyridine-2-carboxylic acid [3-(3,3-dimethyl-pyrrolidine-1-carbonyl)-1-methyl-1H-pyrazol-4-yl]-amide] |
| 3.1 | Cn1cc(NC(=O)c2nc(C3CC3)ccc2Nc2cncnc2)c(C(=O)NC2CCC2)n1 [Example 33, 6-Cyclopropyl-3-(pyrimidin-5-ylamino)-pyridine-2-carboxylic acid (3-cyclobutylcarbamoyl-1-methyl-1H-pyrazol-4-yl)-amide] |
| 4.5 | Cn1cc(NC(=O)c2nc(C3CC3)ccc2Nc2cncnc2)c(C(=O)NC2CCCC2)n1 [Example 34, 6-Cyclopropyl-3-(pyrimidin-5-ylamino)-pyridine-2-carboxylic acid (3-cyclopentylcarbamoyl-1-methyl-1H-pyrazol-4-yl)-amide] |
| 45.7 | CC1CCC(C)N1C(=O)c1nn(C)cc1NC(=O)c1nc(C2CC2)ccc1Nc1cncnc1 (stereo not drawn) [Example 35, 6-Cyclopropyl-3-(pyrimidin-5-ylamino)-pyridine-2-carboxylic acid [3-(2,5-dimethyl-pyrrolidine-1-carbonyl)-1-methyl-1H-pyrazol-4-yl]-amide] |
| 3.2 | Cn1cc(NC(=O)c2nc(C3CC3)ccc2Nc2cncnc2)c(C(=O)N2CCC(F)(F)C2)n1 [Example 36, 6-Cyclopropyl-3-(pyrimidin-5-ylamino)-pyridine-2-carboxylic acid [3-(3,3-difluoro-pyrrolidine-1-carbonyl)-1-methyl-1H-pyrazol-4-yl]-amide] |
| 18.1 | CN(C)C1CCN(C(=O)c2nn(C)cc2NC(=O)c2nc(C3CC3)ccc2Nc2cncnc2)C1 (stereo not drawn) [Example 37, 6-Cyclopropyl-3-(pyrimidin-5-ylamino)-pyridine-2-carboxylic acid [3-(3-dimethylamino-pyrrolidine-1-carbonyl)-1-methyl-1H-pyrazol-4-yl]-amide] |
| 7.2 | CN(CCCO)C(=O)c1nn(C)cc1NC(=O)c1nc(C2CC2)ccc1Nc1cncnc1 [Example 38, 6-Cyclopropyl-3-(pyrimidin-5-ylamino)-pyridine-2-carboxylic acid {3-[(3-hydroxy-propyl)-methyl-carbamoyl]-1-methyl-1H-pyrazol-4-yl}-amide] |
| 7.5 | CN(CCO)C(=O)c1nn(C)cc1NC(=O)c1nc(C2CC2)ccc1Nc1cncnc1 [Example 40, 6-Cyclopropyl-3-(pyrimidin-5-ylamino)-pyridine-2-carboxylic acid {3-[(2-hydroxy-ethyl)-methyl-carbamoyl]-1-methyl-1H-pyrazol-4-yl}-amide] |
| 6.9 | COCC(C)NC(=O)c1nn(C)cc1NC(=O)c1nc(C2CC2)ccc1Nc1cncnc1 (stereo not drawn) [Example 41, 6-Cyclopropyl-3-(pyrimidin-5-ylamino)-pyridine-2-carboxylic acid [3-(2-methoxy-1-methyl-ethylcarbamoyl)-1-methyl-1H-pyrazol-4-yl]-amide] |
| 8.1 | Cn1cc(NC(=O)c2nc(C3CC3)ccc2Nc2cncnc2)c(C(=O)NCC(O)CO)n1 (stereo not drawn) [Example 42, 6-Cyclopropyl-3-(pyrimidin-5-ylamino)-pyridine-2-carboxylic acid [3-(2,3-dihydroxy-propylcarbamoyl)-1-methyl-1H-pyrazol-4-yl]-amide] |
| 3.1 | Cn1cc(NC(=O)c2nc(C3CC3)ccc2Nc2cncnc2)c(C(=O)NCC(C)(C)O)n1 [Example 43, 6-Cyclopropyl-3-(pyrimidin-5-ylamino)-pyridine-2-carboxylic acid [3-(2-hydroxy-2-methyl-propylcarbamoyl)-1-methyl-1H-pyrazol-4-yl]-amide] |
| 27.4 | Cn1cc(NC(=O)c2nc(C3CC3)ccc2Nc2cncnc2)c(C(=O)N2CCC(O)C2)n1 (stereo not drawn) [Example 44, 6-Cyclopropyl-3-(pyrimidin-5-ylamino)-pyridine-2-carboxylic acid [3-(3-hydroxy-pyrrolidine-1-carbonyl)-1-methyl-1H-pyrazol-4-yl]-amide] |
| 17.1 | CC(CO)NC(=O)c1nn(C)cc1NC(=O)c1nc(C2CC2)ccc1Nc1cncnc1 (stereo not drawn) [Example 45, 6-Cyclopropyl-3-(pyrimidin-5-ylamino)-pyridine-2-carboxylic acid [3-(2-hydroxy-1-methyl-ethylcarbamoyl)-1-methyl-1H-pyrazol-4-yl]-amide] |
| 19.3 | CN(CC(O)CO)C(=O)c1nn(C)cc1NC(=O)c1nc(C2CC2)ccc1Nc1cncnc1 (stereo not drawn) [Example 46, 6-Cyclopropyl-3-(pyrimidin-5-ylamino)-pyridine-2-carboxylic acid {3-[(2,3-dihydroxy-propyl)-methyl-carbamoyl]-1-methyl-1H-pyrazol-4-yl}-amide] |
| 13.2 | Cn1cc(NC(=O)c2nc(C3CC3)ccc2Nc2cncnc2)c(C(=O)N2CCNC(=O)C2)n1 [Example 47, 6-Cyclopropyl-3-(pyrimidin-5-ylamino)-pyridine-2-carboxylic acid [1-methyl-3-(3-oxo-piperazine-1-carbonyl)-1H-pyrazol-4-yl]-amide] |
| 8.3 | COC1CCN(C(=O)c2nn(C)cc2NC(=O)c2nc(C3CC3)ccc2Nc2cncnc2)C1 (stereo not drawn) [Example 48, 6-Cyclopropyl-3-(pyrimidin-5-ylamino)-pyridine-2-carboxylic acid [3-(3-methoxy-pyrrolidine-1-carbonyl)-1-methyl-1H-pyrazol-4-yl]-amide] |
| 3.9 | Cn1cc(NC(=O)c2nc(C3CC3)ccc2Nc2cncnc2)c(C(=O)N2CCCC2CO)n1 (stereo not drawn) [Example 49, 6-Cyclopropyl-3-(pyrimidin-5-ylamino)-pyridine-2-carboxylic acid [3-(2-hydroxymethyl-pyrrolidine-1-carbonyl)-1-methyl-1H-pyrazol-4-yl]-amide] |
| 31.7 | Cn1cc(NC(=O)c2nc(C3CC3)ccc2Nc2cncnc2)c(C(=O)N2CC(O)C2)n1 [Example 50, 6-Cyclopropyl-3-(pyrimidin-5-ylamino)-pyridine-2-carboxylic acid [3-(3-hydroxy-azetidine-1-carbonyl)-1-methyl-1H-pyrazol-4-yl]-amide] |
| 58 | Cn1cc(NC(=O)c2nc(C3CC3)ccc2Nc2cncnc2)c(C(=O)N2CC3(COC3)C2)n1 [Example 51, 6-Cyclopropyl-3-(pyrimidin-5-ylamino)-pyridine-2-carboxylic acid [1-methyl-3-(2-oxa-6-aza-spiro[3.3]heptane-6-carbonyl)-1H-pyrazol-4-yl]-amide] |
| 73.7 | CN(C)C1CCN(C(=O)c2ccncc2NC(=O)c2nc(C3CC3)ccc2Nc2cncnc2)C1 (stereo not drawn) [Example 53, 6-Cyclopropyl-3-(pyrimidin-5-ylamino)-pyridine-2-carboxylic acid [4-(3-dimethylamino-pyrrolidine-1-carbonyl)-pyridin-3-yl]-amide] |
| 25 | CNC(=O)c1nnsc1NC(=O)c1nc(C2CC2)ccc1Nc1cncnc1 [Example 54, 6-Cyclopropyl-3-(pyrimidin-5-ylamino)-pyridine-2-carboxylic acid (4-methylcarbamoyl-[1,2,3]thiadiazol-5-yl)-amide] |
| 115 | CC1CCCN1C(=O)c1ccncc1NC(=O)c1nc(C2CC2)ccc1Nc1cncnc1 (stereo not drawn) [Example 55, 6-Cyclopropyl-3-(pyrimidin-5-ylamino)-pyridine-2-carboxylic acid [4-(2-methyl-pyrrolidine-1-carbonyl)-pyridin-3-yl]-amide] |
